Here are results for three compounds from patent EP4818178A1, “PREPARATION AND USE OF PYRIMIDOTHIOPYRANONE KRAS MUTANT PROTEIN INHIBITOR” (Ya Therapeutics Inc, priority 2024, dated 2025).

SMILES strings stand for the structures. Where only a bound is given, the exact number is not on record here.

One experiment addresses KRasG12D (Homo sapiens, UniProt P01116, G12D). The experiment is described as follows: KRAS inhibitory activity test, TR-FRET (inhibition of binding of KRasG12D to GTP, SOS/GTP nucleotide exchange). Type of experiment: biochemical. Particulars: read-out: IC50 values of the compounds for inhibiting KRAS enzymes, G12D. In outline:
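KRasG12D preloaded with Bodipy-GDP plus Tb-streptavidin (3 nM Kras/0.5 nM Tb-SA/30 nM Bodipy-GDP) incubated 1 h at rt with compound (10-point 3-fold series). SOS/GTP mixture then added for 1 h at rt. TR-FRET signal read; IC50 calculated.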

Experiment [1] concerns p-ERK in A549 (G12S) cells. The experiment is described as follows: Cellular p-ERK inhibition assay (HTRF). Type of experiment: cell-based. Particulars: 1 hour with compound. The procedure: (§1) Cells were seeded in clear 96-well cell culture plates, with 80 µL of cell suspension per well, containing 8000 cells per well. The plates were incubated overnight at 37°C using a CO2 incubator. 2 µL of the compound was added to 78 µL of cell culture medium, mixed well, and then 20 µL of the compound solution was added to the corresponding wells of the cell culture plate. The plates were returned to the CO2 incubator for another hour. After incubation, the cell supernatant was discarded, and 50 µL of the […] was added to the cell culture plate. Add 1X cell lysis buffer to each well and incubate at room temperature with shaking for 30 minutes. Dilute Phospho-ERK1/2 Eu Cryptate antibody and Phospho-ERK1/2 d2 antibody 20-fold using detection buffer. Transfer 16 µL of cell lysis supernatant to each well in a new 384 white microplate, then add 2 µL of Phospho-ERK1/2 Eu Cryptate antibody diluent and 2 µL of Phospho-ERK1/2 d2 antibody diluent. Incubate at room temperature for at least 4 hours. After incubation, read the HTRF excitation (320 nm) and emission (615 nm, 665 nm) using a multilabel analyzer. Calculate the IC50 of the analyte. "++++" indicates IC50≤ 10 nM; "+++" indicates 10 nM < IC50≤ 100 nM; "++" indicates 100 nM < IC50≤ 2000 nM; "+" indicates 2000 nM < IC50. Table 2. IC50 (nM) of the compounds on the inhibition of p-ERK in tumor cells.

In experiment [2] the test system is p-ERK in AsPC-1 (G12D) cells. The experiment is described as follows: Cellular p-ERK inhibition assay (HTRF). Type of experiment: cell-based. Particulars: Homo sapiens, ASPC1, 1 hour with compound, read-out: IC50 (nM) of the compounds on the inhibition of p-ERK in tumor cells, AsPC-1. On the procedure: as §1
The subject of experiment [3] is p-ERK in HCT116 (G13D) cells. Briefly: Cellular p-ERK inhibition assay (HTRF). Type of experiment: cell-based. Particulars: Homo sapiens, HCT-116, 1 hour with compound, read-out: IC50 (nM) of the compounds on the inhibition of p-ERK in tumor cells, HCT11 6. On the procedure:
as §1

For experiment [4], the system named is p-ERK in MKN1 (WTdep) cells. Briefly: Cellular p-ERK inhibition assay (HTRF). Particulars: Homo sapiens, MKN-1, 1 hour with compound, read-out: IC50 (nM) of the compounds on the inhibition of p-ERK in tumor cells, MKN 1. Type of experiment: cell-based. The procedure:
as §1

The test system of experiment [5] is p-ERK in NCI-H358 (G12C) cells. The experiment is described as follows: Cellular p-ERK inhibition assay (HTRF). Type of experiment: cell-based. Particulars: Homo sapiens, 1 hour with compound, read-out: IC50 (nM) of the compounds on the inhibition of p-ERK in tumor cells, NCI-H35 8. On the procedure: as §1
For experiment [6], the system named is p-ERK in NCI-H460 (Q61H) cells. The experiment is described as follows: Cellular p-ERK inhibition assay (HTRF). Type of experiment: cell-based. Particulars: Homo sapiens, 1 hour with compound, read-out: IC50 (nM) of the compounds on the inhibition of p-ERK in tumor cells, NCI-H46 0. On the procedure: as §1
Experiment [7] relates to p-ERK in NCI-H727 (G12V) cells. Briefly: Cellular p-ERK inhibition assay (HTRF). Type of experiment: cell-based. Particulars: Homo sapiens, 1 hour with compound, read-out: IC50 (nM) of the compounds on the inhibition of p-ERK in tumor cells, NCI-H72 7. On the procedure: as §1
The subject of experiment [8] is p-ERK in PSN-1 (G12R) cells. The experiment is described as follows: Cellular p-ERK inhibition assay (HTRF). Type of experiment: cell-based. Particulars: Homo sapiens, PSN1, 1 hour with compound, read-out: IC50 (nM) of the compounds on the inhibition of p-ERK in tumor cells, PSN-1. The procedure: as §1

Chain of KRasG12D (P01116 1-188 isoform P01116-2 G12D): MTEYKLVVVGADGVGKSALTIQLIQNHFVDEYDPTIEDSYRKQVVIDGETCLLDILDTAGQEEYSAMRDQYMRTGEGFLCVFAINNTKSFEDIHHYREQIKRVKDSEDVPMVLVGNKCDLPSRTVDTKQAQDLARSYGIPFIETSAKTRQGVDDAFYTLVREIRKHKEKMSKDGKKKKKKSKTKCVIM

For the compound `Cc1cc(N)c(F)c(C2Cc3nc(OC[C@@]45CCCN4C[C@H](F)C5)nc(N4C[C@H]5CC[C@@H](C4)N5)c3CS2(=O)=O)c1C(F)(F)F` (stereo partly drawn) [Compound 1], the IC50 (at KRasG12D; in experiment [2]; in experiment [3]; in experiment [4]; in experiment [5]; in experiment [6]) was at most 10 nM each time. The IC50 in experiment [7] is at most 10 nM; in [8], 100 to 2000 nM. The “IC50 (nM) of the compounds on the inhibition of p-ERK in tumor cells, A54 9” value in [1] is “+++ +”.

Regarding `Cc1cc(N)c(F)c(C2Cc3nc(OC[C@@]45CCCN4C[C@H](F)C5)nc(N4CCC[C@@](C)(O)C4)c3CS2(=O)=O)c1C(F)(F)F` (stereo partly drawn) [Compound 5, 7-(3-amino-2-fluoro-5-methyl-6-(trifluoromethyl)phenyl)-2-(((2R,7AS)-2-fluorotetra hydro-1H-pyrrolazin-7a(5H)-yl)methoxy)-4-((R)-3-hydroxy-3-methylpiperidin-1-yl)-7,8-dihydro-5H-thiopyrano[4,3-d]pyrimidine 6,6-dioxide], the IC50 (at KRasG12D; in [2]; in experiment [3]; in experiment [4]; in experiment [5]; in experiment [6]) was at most 10 nM in each case. In addition, the IC50 was at most 10 nM in experiment [7] and 100 to 2000 nM in experiment [8]. In experiment [1], the “IC50 (nM) of the compounds on the inhibition of p-ERK in tumor cells, A54 9” value is recorded as “+++ +”.

As to `Cc1cc(O)c(F)c(C2Cc3nc(OC[C@@]45CCCN4C[C@H](F)C5)nc(N4CCC[C@@](C)(O)C4)c3CS2(=O)=O)c1C(F)(F)F` (stereo partly drawn) [Compound 6, 7-(2-fluoro-3-hydroxy-5-methyl-6-(trifluoromethyl)phenyl)-2-(((2R,7AS)-2-fluorotetrahydro-1H-pyrrolazin-7a(5H)-yl)methoxy)-4-((R)-3-hydroxy-3-methylpiperidin-1-yl)-7,8-dihydro-5H-thiopyrano[4,3-d]pyrimidine 6,6-dioxide], the IC50 (at KRasG12D; in [2]; in [3]; in [4]; in [5]; in experiment [6]) was at most 10 nM in each case. Further, the results for the IC50 in [7] and in [8] were at most 10 nM and 100 to 2000 nM, respectively. Also, the “IC50 (nM) of the compounds on the inhibition of p-ERK in tumor cells, A54 9” value in experiment [1] is given as “+++ +”.
